Experimental data taken from patent US20080280920A1, “Plasminogen Activator Inhibitor-1 Inhibitors” (priority 2005, published 2008).

Key:
wildtype human PAI-1 = molecular target: T1, wildtype human PAI-1 (Homo sapiens, UniProt P05121); test: PAI-1/uPA assay (residual uPA activity, fluorescent substrate SpectroFluor); assay type: biochemical; conditions: for Percent PAI-1 inhibition: at the concentration given, percent of activity of untreated PAI-1; for Conc. of compound required for PAI-1 inhibition: concentration giving the percent inhibition, 6 nM PAI-1, 8 nM uPA
T1 construct: purchased Molecular Innovations Lot# HWT-804
T1 sequence (P05121 24-402): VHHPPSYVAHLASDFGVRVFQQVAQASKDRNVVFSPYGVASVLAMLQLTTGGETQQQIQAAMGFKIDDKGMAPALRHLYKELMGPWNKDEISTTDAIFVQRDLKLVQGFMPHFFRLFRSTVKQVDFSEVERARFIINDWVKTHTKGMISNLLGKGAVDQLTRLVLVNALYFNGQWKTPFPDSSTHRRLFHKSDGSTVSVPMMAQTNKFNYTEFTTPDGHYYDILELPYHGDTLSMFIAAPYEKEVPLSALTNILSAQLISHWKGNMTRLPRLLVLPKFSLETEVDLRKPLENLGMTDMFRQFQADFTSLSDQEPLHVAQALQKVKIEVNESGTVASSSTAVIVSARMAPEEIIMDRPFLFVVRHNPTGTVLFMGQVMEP
Method: Principle: The assay is based on using a fluorescent substrate (SpectroFluor) to measure residual uPA following inhibition of uPA by PAI-1. PAI-1 used in the assay is pre-treated in the presence of increasing concentrations of the lead compounds to screen for any inhibitory effects on PAI-1. Method: This assay was performed in 96 well microtiter plates. The concentrations of uPA (8 nM) and PAI-1 (6 nM) used in this assay were carefully optimized when using the fluorescent substrate, SpectroFluor™. Stock solutions (10 mM) of all lead compounds were prepared fresh in DMSO. […] 20 μl of 6 nM wildtype human PAI-1 (Molecular Innovations, Lot# HWT-804) was incubated for 15-20 minutes at room temperature in 96 well microtiter plates either with buffer, (50 mM HEPES, 150 mM NaCl, 0.05% Tween-20, 1% BSA, pH 6.6) or various concentrations (10 nM to 100 μM final concentration) of lead compounds in a total volume of 80 μl. A 20 μl aliquot of 8 nM uPA (HMW) solution in 0.05M Tris Buffered™ saline (TBS), pH 8.4 was added to each well and the mixture incubated for an additional 5 minutes at RT. The proteolytic reaction was initiated by addition of 50 μl of 0.1 mM SpectroFluor (Spectrozyme UK Fluorogenic substrate) to each well. The kinetics of the free chromophore, 7-amino-4-methylcoumarin (AMC) released in the course of peptide cleavage by the protease, uPA, was monitored for 30 minutes at 37° C. on a spectrofluorometric microplate reader with an excitation wavelength of 360 nm and emission wavelength of 440 nm. Kinetic data regarding the rate of substrate cleavage by uPA was acquired with Softmax PrO™ software. The difference between the residual uPA activity in the presence or absence of untreated PAI-1, at the molar ratio used, was considered as the “total” PAI-1 activity (100%). The inhibition of uPA by PAI-1 treated with lead compounds was expressed as a percentage of the initial activity of untreated PAI-1. Controls were performed during each experiment to ensure the nearly complete inhibition of uPA by untreated PAI-1 and also to ensure the absence of any direct effect of the lead compounds on uPA alone or on SpectroFluor.

[1] = molecular target: T2, PAI-1 interaction with vitronectin (Homo sapiens, UniProt P05121); test: PAI-1 vitronectin interaction ELISA; assay type: binding; conditions: 15 nM PAI-1, vitronectin coated plates
T2 construct: purchased Molecular Innovations
T2 sequence (P05121 24-402): as above
Method: Principle: This ELISA assay is based on the interaction of wildtype human PAI-1 (aa 110-145) with the N-terminal somatomedin B-like (SMB) domain (aa 1-40) on vitronectin. PAI-1 was allowed to bind to vitronectin coated plates. The bound PAI-1 was detected with a HRP-conjugated polyclonal goat anti-human PAI-1 antibody using a standard ELISA method. In order to screen these compounds for their ability to disrupt PAI-1's interaction with vitronectin, PAI-1 was pre-incubated with various concentrations of the lead compounds before being allowed to bind to vitronectin.
Method: Human monomeric vitronectin (Vn; Molecular Innovations) was diluted to a concentration of 2.5 μg/ml in a buffer containing 100 mM Na2CO3, pH 9.6. […]
In a separate 96-well microtiter plate 20 μL per well of wildtype human PAI-1 (15 nM final concentration) was added with or without various concentrations of lead compounds (1 μM to 1000 μM final concentration) and incubated at room temperature for 15 minutes on a rotating shaker. […] Optical density was measured at 450 nm on a SoftMax PrO™ plate reader.
Where vitronectin inhibition was evident, IC50 values for a test compound were calculated by fitting a non-linear sigmoidal regression curve to log micromolar concentration versus optical density data.

SMILES | Percent PAI-1 inhibition (wildtype human PAI-1) | Conc. of compound required for PAI-1 inhibition (wildtype human PAI-1) [µM] | IC50 [1] [µM]
CCOC(=O)[C@H](CCCNC(=N)NS(=O)(=O)c1c(C)cc(OC)c(C)c1C)NC(=O)N[C@@H](Cc1csc2ccccc12)C(=O)OCC [Compound Q012059, (2S)-2-[({[(1S)-1-carboxy-2-(thianaphthen-3-yl)ethyl]amino}carbonyl)amino]-5-({imino[(4-methoxy-2,3,6-trimethylphenylsulfonyl)amino]methyl}amino)pentanoic acid diethyl ester] | 23 | 10 | 910
COc1cc(CNCCCn2ccnc2)cc(CN2CCN(c3ncccn3)CC2)c1O [Compound Q012110, 2-Methoxy-4-({3-[(1H-imidazol-1-yl)propyl]amino}methyl)-6-[(4-pyrimidin-2-ylpiperazin-1-yl)methyl]phenol] | 57 | 5 | 340
